Source: EP1343508B1, “USE OF AN OESTROGEN IN THE MANUFACTURE OF A COMPOSITION CONTAINING OESTROGEN FOR THE TREATMENT OF ATROPHIC VAGINITIS” (Novo Nordisk Femcare AG, priority 2000, dated 2002)
Marks after values point to notes of the source that are not given here.

Columns and labels:
[1] = 24-hour serum estradiol profile after vaginal tablet insertion (radioimmunoassay), Example 2; assay type: in vivo, postmenopausal women; conditions: for patients with areas under the curve below 600 pg hr/mL at both time points / percentage of patients with areas under the curve below 600 pg hr/mL at both time points: weeks 0 and 12; for Maximal concentration / Time to maximal concentration: mean ± SD
Description: (§1) After the screening visit, patients received no study treatment during the 4-week run-in period prior to the baseline visit. […] The vaginal tablets were identical in appearance. Patients inserted 1 tablet intravaginally, once daily for the initial 2 weeks of the study and then twice per week (Sunday and Thursday) for the remaining 10 weeks. Patients were instructed to use their medication at a consistent time each day, preferably in the morning.
(§2) Upon presentation to the clinic for each visit, a vaginal cytology specimen was obtained. Patients then inserted the tablets. […] The blood samples obtained at 30 minutes before insertion, and at 6, 12, and 24 hours after insertion were also used to determine the FSH concentration via immunoradiometric assay.
(§3) Data for area under the curve and maximal concentration were converted to a logarithmic scale, and changes from first dose (at the baseline visit) in the logarithmic values were estimated using 95% confidence intervals derived from paired t-tests. […] Differences within treatment groups in FSH concentration were determined using the Wilcoxon signed rank test based on changes from baseline in mean concentrations at weeks 2 and 12. Mean concentrations were defined as the average concentrations obtained at 30 minutes before tablet insertion and 6, 12, and 24 hours after insertion.

[2] = test system: FSH; assay: Serum FSH concentration (immunoradiometric assay), Example 2; assay type: in vivo, postmenopausal women; conditions: 25 µg E2; Week 12
Description: Maturation values of vaginal mucosal cells were assessed as an indicator of changes in the condition of the vaginal mucosa in response to treatment.
as §1, §2
as §3, with “Mean concentrations were defined as the average concentrations obtained at 30 minutes before tablet insertion and 6, 12, and 24 hours after insertion.” left out

[3] = test system: postmenopausal women with atrophic vaginitis; assay: Patients with vaginal pH below 5.5, Example 3; assay type: in vivo
Description: Efficacy was measured with composite scores of vaginal symptoms (dryness, soreness, and irritation) and vaginal health (secretions, epithelial integrity, surface thickness, and pH). Vaginal and urethral cytology analyses were also performed, and the vaginal maturation value was determined. Safety assessments included endometrial biopsies. […] All vaginal tablets were identical in appearance. Patients inserted 1 tablet daily for 14 days. Thereafter, patients inserted 1 tablet twice per week (Sunday and Thursday) for the remainder of the trial. Patients were to insert the tablets at the same time each day (preferably at bedtime). Patients were evaluated for efficacy and safety at Week - 4 (screening), Week 0 (baseline), and Weeks 2, 7, and 12. Investigators used a severity scale of none, mild, moderate, or severe to assess vaginal health characteristics (secretions, epithelial integrity, surface thickness, color, and pH). Severity categories were assigned ascending scores from 0 (none) to 3 (severe) for analysis. To avoid multiple endpoint issues, composite scores were defined. A composite score for vaginal health was defined as the average of the individual vaginal health characteristic scores. The composite score and the change from baseline for the composite score were examined at each time point. Differences within and between treatment groups were analyzed using an analysis of variance (ANOVA). […] Efficacy was measured with composite scores of vaginal symptoms (dryness, soreness, and irritation) and vaginal health (secretions, epithelial integrity, surface thickness, and pH). Vaginal and urethral cytology analyses were also performed, and the vaginal maturation value was determined. Safety assessments included endometrial biopsies. […] All vaginal tablets were identical in appearance. Patients inserted 1 tablet daily for 14 days. Thereafter, patients inserted 1 tablet twice per week (Sunday and Thursday) for the remainder of the trial. Patients were to insert the tablets at the same time each day (preferably at bedtime). Patients were evaluated for efficacy and safety at Week - 4 (screening), Week 0 (baseline), and Weeks 2, 7, and 12. Investigators used a severity scale of none, mild, moderate, or severe to assess vaginal health characteristics (secretions, epithelial integrity, surface thickness, color, and pH). Severity categories were assigned ascending scores from 0 (none) to 3 (severe) for analysis. To avoid multiple endpoint issues, composite scores were defined. A composite score for vaginal health was defined as the average of the individual vaginal health characteristic scores. The composite score and the change from baseline for the composite score were examined at each time point. Differences within and between treatment groups were analyzed using an analysis of variance (ANOVA).

[4] = test system: superficial urethral cells; assay: Urethral cytology, percentage of superficial cells, Example 3; assay type: in vivo, postmenopausal women
Description: (§4) Efficacy was measured with composite scores of vaginal symptoms (dryness, soreness, and irritation) and vaginal health (secretions, epithelial integrity, surface thickness, and pH). Vaginal and urethral cytology analyses were also performed, and the vaginal maturation value was determined. Safety assessments included endometrial biopsies.
All vaginal tablets were identical in appearance. Patients inserted 1 tablet daily for 14 days. Thereafter, patients inserted 1 tablet twice per week (Sunday and Thursday) for the remainder of the trial. Patients were to insert the tablets at the same time each day (preferably at bedtime). Patients were evaluated for efficacy and safety at Week - 4 (screening), Week 0 (baseline), and Weeks 2, 7, and 12.
(§5) Vaginal and urethral cell samples were harvested and analyzed by independent cytologists to determine the percentages of parabasal, intermediate, and superficial cells. Maturation values were calculated according to the following equation: maturation value = 1.0 × [superficial cells, %] + 0.5 × [intermediate cells, %] [formula] Endometrial biopsies were performed at the end of the study in patients with intact uteri. The number of patients with abnormal biopsies was compared between treatment groups.

[5] = test system: endometrium; assay: Endometrial biopsy at end of study, Example 3; assay type: in vivo, postmenopausal women; conditions: Week 12, N = 32
Description: as §4, §5

[6] = 10 µg E2 vaginal tablet, Week 0
[7] = 10 µg E2 vaginal tablet, Week 12
[8] = 25 µg E2 vaginal tablet, Week 0
[9] = 25 µg E2 vaginal tablet, Week 12

C[C@]12CC[C@@H]3c4ccc(O)cc4CC[C@H]3[C@@H]1CC[C@@H]2O [E2, 17β-estradiol]
patients with areas under the curve below 600 pg hr/mL at both time points ([1]; 10 µg E2): 22 patients | percentage of patients with areas under the curve below 600 pg hr/mL at both time points ([1]; 10 µg E2): 96% | Serum concentration over 24 hours [1, 6]: 0.015 ng/mL | Maximal concentration [1, 6]: 35 ± 17 pg/mL | Area under the curve ([1]; 10 µg E2 vaginal tablet, Week 0, serum E2, mean ± SD): 0.349 ± 0.107 ng·h/mL | Serum concentration over 24 hours [1, 7]: 0.011 ng/mL | Maximal concentration [1, 7]: 22 ± 17 pg/mL | Time to maximal concentration [1, 7]: 10 ± 8 h | Area under the curve ([1]; 10 µg E2 vaginal tablet, Week 12, serum E2, mean ± SD): 0.264 ± 0.12 ng·h/mL | patients with areas under the curve below 600 pg hr/mL at both time points ([1]; 25 µg E2): 14 patients | percentage of patients with areas under the curve below 600 pg hr/mL at both time points ([1]; 25 µg E2): 74% | Serum concentration over 24 hours [1, 8]: 0.022 ng/mL | Time to maximal concentration [1, 8]: 15 ± 9 h | Area under the curve ([1]; 25 µg E2 vaginal tablet, Week 0, repeated Table 2): 538000 ± 265000 ng·h/mL | Area under the curve ([1]; 25 µg E2 vaginal tablet, Week 0, serum E2, mean ± SD): 0.538 ± 0.265 ng·h/mL | Serum concentration over 24 hours [1, 9]: 0.023 ng/mL | Time to maximal concentration [1, 9]: 13 ± 6 h | Area under the curve ([1]; 25 µg E2 vaginal tablet, Week 12, serum E2, mean ± SD): 0.563 ± 0.341 ng·h/mL | patients with mean FSH concentrations below 35 mIU/mL [2]: 3 patients | Patients With Vaginal pH Values Below 5.5, (%) ([3]; 10 µg E2, Week 0): (30.3) % | Patients With Vaginal pH Values Below 5.5, n/N ([3]; 10 µg E2, Week 0): 27/89 | Patients With Vaginal pH Values Below 5.5, (%) ([3]; 10 µg E2, Week 2): (79.8)^b % | Patients With Vaginal pH Values Below 5.5, n/N ([3]; 10 µg E2, Week 2): 67/84 | Patients With Vaginal pH Values Below 5.5, (%) ([3]; 10 µg E2, Week 7): (71.3)^c % | Patients With Vaginal pH Values Below 5.5, n/N ([3]; 10 µg E2, Week 7): 57/80 | Patients With Vaginal pH Values Below 5.5, (%) ([3]; 10 µg E2, Week 12): (76.1)^b % | Patients With Vaginal pH Values Below 5.5, n/N ([3]; 10 µg E2, Week 12): 54/71 | Patients With Vaginal pH Values Below 5.5, (%) ([3]; 25 µg E2, Week 0): (34.4) % | Patients With Vaginal pH Values Below 5.5, n/N ([3]; 25 µg E2, Week 0): 31/90 | Patients With Vaginal pH Values Below 5.5, (%) ([3]; 25 µg E2, Week 2): (73.6)^a % | Patients With Vaginal pH Values Below 5.5, n/N ([3]; 25 µg E2, Week 2): 64/87 | Patients With Vaginal pH Values Below 5.5, n/N ([3]; 25 µg E2, Week 7): 71/83 | Patients With Vaginal pH Values Below 5.5, (%) ([3]; 25 µg E2, Week 12): (79.7)^b % | Patients With Vaginal pH Values Below 5.5, n/N ([3]; 25 µg E2, Week 12): 63/79 | percentage of patients with vaginal pH values below 5.5 ([3]; each treatment group (25 or 10 µg E2), Week 0): approximately 35% | percentage of superficial urethral cells, Mean ([4]; 10 µg E2, Week 0): 2.5% | percentage of superficial urethral cells, Mean ([4]; 10 µg E2, Week 2): 16.7% | percentage of superficial urethral cells, mean Change from baseline ([4]; 10 µg E2, Week 2): 14.1^c % | percentage of superficial urethral cells, Mean ([4]; 10 µg E2, Week 7): 13.5% | percentage of superficial urethral cells, mean Change from baseline ([4]; 10 µg E2, Week 7): 10.7% | percentage of superficial urethral cells, Mean ([4]; 10 µg E2, Week 12): 9.5% | percentage of superficial urethral cells, mean Change from baseline ([4]; 10 µg E2, Week 12): 6.8% | percentage of superficial urethral cells, Mean ([4]; 25 µg E2, Week 0): 3.2% | percentage of superficial urethral cells, Mean ([4]; 25 µg E2, Week 2): 21.9% | percentage of superficial urethral cells, mean Change from baseline ([4]; 25 µg E2, Week 2): 19.2^a,b % | percentage of superficial urethral cells, Mean ([4]; 25 µg E2, Week 7): 17.6% | percentage of superficial urethral cells, mean Change from baseline ([4]; 25 µg E2, Week 7): 14.2^d % | percentage of superficial urethral cells, Mean ([4]; 25 µg E2, Week 12): 11.2% | percentage of superficial urethral cells, mean Change from baseline ([4]; 25 µg E2, Week 12): 7.5% | Endometrial Biopsy Result Abnormal, percentage of patients ([5]; 10 µg E2): 0.0% | Endometrial Biopsy Result Normal, number of patients ([5]; 10 µg E2): 25 | Endometrial Biopsy Result Normal, percentage of patients ([5]; 10 µg E2): 78.1% | Endometrial Biopsy Result Other, number of patients ([5]; 10 µg E2): 7 | Endometrial Biopsy Result Other, percentage of patients ([5]; 10 µg E2): 21.9% | Endometrial Biopsy Result Abnormal, number of patients ([5]; 10 µg E2, hyperplasia or carcinoma): 0 | Endometrial Biopsy Result Abnormal, percentage of patients ([5]; 25 µg E2): 3.1% | Endometrial Biopsy Result Normal, number of patients ([5]; 25 µg E2): 28 | Endometrial Biopsy Result Normal, percentage of patients ([5]; 25 µg E2): 87.5% | Endometrial Biopsy Result Other, number of patients ([5]; 25 µg E2): 3 | Endometrial Biopsy Result Other, percentage of patients ([5]; 25 µg E2): 9.4%
